# Results as given in patent publication US6686333B1, “Inhibition of HIV replication using soluble Tat peptide analogs” (priority 1996, dated 2004).
# Assays:
# [1] = system: Tat transactivation of the HIV-1 promoter; assay: Transfection and CAT assay: Tat transactivation of HIV-1 LTR-CAT reporter in electroporated CEM lymphocytes; format: cell-based; details: for Tat transactivation (CAT) in presence of peptide: suppression from 95.7, Tat protein 1 μg, peptide 5 μg, HIV-1 LTR-CAT 5 μg, CEM
# Method: Initial studies focused on the analysis of a series of Tat peptide analogs, containing various amino acid substitutions, for their ability to inhibit Tat transactivation of the HIV-1 promoter. CEM lymphocytes, grown to early- to mid-log phase, were electroporated with the Tat protein (1 μg), Tat core peptide 36-50 (5 μg) and the HIV-1 LTR-CAT reporter (5 μg).
# (§1) Cells were electroporated as described previously (Kashanchi F, et al. (1992), Nucleic Acids Res, 20:4673-4674). CEM CD4^+ lymphocytes (12D7) (as well as U1 and HeLa cells described in subsequent examples) were kept at a density of 0.5 to 0.8×10^6 cells/ml with media added daily. Typically, 5×10^6 cells were electroporated with purified peptides, Tat protein and/or 5 μg of a reporter plasmid. Synthetic Tat peptides were purified by HPLC to 95 percent purity (Peptide Technologies Corporation, Gaithersburg, Md.). All peptides were analyzed for purity on a 4-20 percent gradient SDS/PAGE followed by silver staining. Recombinant Tat protein was purified by reverse phase HPLC and tested for functional activity in an in vitro transcription assay and in vivo electroporation into CEM cells (Kashanchi F, et al. (1992), Nucleic Acids Res, 20:4673-4674; Bohan Calif., et al. (1992) Gene Expr, 2:391-407). Tat peptide, Tat protein, and the reporter HIV LTR-CAT were mixed with cells and electroporated using a cell porater apparatus (Gibco/BRL, Gaithersburg, Md.). Cell mixtures were electroporated at 800 μF, 230 volts, in RPMI 1640 media without fetal calf serum. Following electroporation, cells were plated in 10 ml of complete media and samples collected 48 hours later for either CAT assay, p24 Gag antigen capture assay or northern blot analysis. Samples receiving rTNF-α (R & D System, Minneapolis, MN) after electroporation were collected 48 hours post-treatment for p24 Gag antigen capture assay (ABI, Bethesda, Md.).
# [2] = system: HTLV-1 promoter; assay: CAT assay with HTLV-1 LTR (pU3R CAT) reporter, basal and Tax1 transactivated; format: cell-based; details: for basal transcription of the HTLV-1 promoter: decreased from 19
# Method: as §1
# (§2) It was of interest to determine if the peptides inhibited transcription from other polymerase II promoters. We have tested seven promoters including HTLV-1, CMV, PTHrP, IgH, RAS, RSV, and SIV. Each promoter, cloned upstream of the CAT reporter gene, was cotransfected individually with the Tat peptides under identical conditions. Electroporation was as in Example 1 but reporter genes used were HTLV-1 LTR (pU3R CAT, 5 μg) or pCMV-CAT (5 μg), containing the CMV promoter. […] For example, basal transcription of the HTLV-1 promoter decreased from 19 to 15.6 and 16.4 percent using 1 and 5,μg of the peptide analog 41/44. Similarly, Tat peptide analog 41/44 decreased Tax1 (1 μg) transactivated transcription approximately two-fold (49.2 to 22.8 percent). In other control experiments, transcription from the CMV promoter was decreased from 17.8 to 9.04 and 6.7 percent in the presence of 1 or 5 μg of Tat peptide analog 41/44.
# [3] = system: CMV promoter; assay: CAT assay with pCMV-CAT reporter; format: cell-based; details: decreased from 17.8
# Method: as §1, with “Samples receiving rTNF-α (R & D System, Minneapolis, MN) after electroporation were collected 48 hours post-treatment for p24 Gag antigen capture assay (ABI, Bethesda, Md.).” left out
# [4] = system: HTLV-1, CMV, PTHrP, IgH, RAS, RSV, and SIV promoters; assay: CAT assays with other polymerase II promoters; format: cell-based; details: seven promoters upstream of CAT, cotransfected with Tat peptides
# Method: as §2
# [5] = system: HIV virus replication in U1 cells; assay: Tat-induced virus production in latently infected U1 cells, p24 antigen capture assay; format: cell-based, HIV-1; details: Tat protein 2.5 μg
# Method: as §1, with “Samples receiving rTNF-α (R & D System, Minneapolis, MN) after electroporation were collected 48 hours post-treatment for p24 Gag antigen capture assay (ABI, Bethesda, Md.).” left out
# [6] = system: HIV-1 virus replication in U1/U937 co-cultivation; assay: Co-cultivation of transfected U1 cells with U937 monocyte cell line; format: cell-based; details: seven days of co-cultivation U1:U937 1:5; peptide 2.5 μg with Tat protein
# Text: It was of interest to determine whether the level of virus particles produced in the presence of Tat peptide analog 41/44 was sufficient to initiate a second round of virus replication. This is an important point to consider when designing specific inhibitors for HIV, since detection of p24 or reverse transcriptase in particles is not necessarily an indication of infectious particles. Dimitrov and Martin, Nature, 375:194-195 (1994). To address this question, we utilized co-cultivation assays in which the induced Ul cells were co-cultivated with the parental U937 monocyte cell line.
# Transfected U1 cells (5×10^6) were co-cultivated with the U937 cells 48 hrs after transfection. The co-cultivation assay was initially tested using either a 1:1, 1:5, or 1:25 ratio of infected to uninfected cells. A 1:5 co-cultivation was determined to be the optimal ratio in obtaining the highest viral production within a 2 week period. Cells were co-cultivated in a total of 4 mls for a period of 2 weeks. After the fist week, 2 mls of media cells was removed and 2 mls of fresh media added. Both U937 and CEM cells were seeded at a density of 0.5×10^6 cells per culture dish prior to the co-cultivation experiment.
# Initially, cells were electroporated with either wild type (2.5 μg) or peptide analog 41/44 (2.5 μg), along with Tat protein. […]
# [7] = system: HIV-1 viral mRNA; assay: Northern blot of U1 cells, HIV-1 viral mRNA; format: cell-based; details: U1 cells treated with Tat and peptide, 48 hrs
# Method: (§3) For northern blot analysis, U1 or HLM1 (Tat HIV proviral clone, Sadaie M R, et al. (1994), Virology, 202:513-518) cells were transfected with either Tat protein, or Tat protein in combination with peptides and collected 48 hrs later. Total RNA was extracted using the Trizol reagent (Gibco/BRL). RNA concentration was measured and equivalent amounts of RNA (5 μg) were loaded on a formaldehyde-agarose gel. The RNA was blotted onto nitrocellulose and hybridized with a randomly primed ^32P-labelled HIV-1 proviral genome BH10 (Lofstrand, Inc.), histone H2b, β-Actin or GAPDH probe (Oncor Science, Inc.). Blots were washed, exposed and quantitated using a PhosphorImager (Molecular Dynamics) […].
# (§4) Cellular RNAs including actin, histone H2b, and GAPDH, were monitored in cells treated with Tat and peptide analogs. […] In contrast, no change in the expression of the cellular GAPDH gene was observed.
# [8] = system: cellular GAPDH gene; assay: Northern blot of U1 cells, cellular RNA; format: cell-based; details: U1 cells treated with Tat and peptide
# Method: as §3, §4
# [9] = system: TBP/Tat-activated transcription; assay: Gal4-Tat / CMV-TBP activated minimal HIV-1 promoter CAT assay in CEM cells; format: cell-based; details: CEM T-cells, Gal4-TATA+/TAR- reporter
# Method: It was of interest to determine if the Tat peptide analog targeted the interaction of Tat with TBP in vivo. For these experiments, we used a minimal HIV-1 promoter (−31 to +21) with Gal4 binding sites located upstream of the promoter. CEM cells were transfected with combinations of Gal4-TATA^+/TAR^− reporter plasmid, Gal4-Tat and a CMV-TBP expression plasmid. Southgate CD, et al. (1991), Genes Dev, 5:2496-2507; Horikoshi N, et al. (1995), Mol Cell Biol, 15:227-234. Peptides were added at the time of electroporation. Following electroporation, cells were plated in complete media, harvested at 48 hours and CAT assays performed. The Gal4-TAT^+/TAR^− plasmid contains six Gal4 binding sites, followed by the HIV sequence from −31 to […]. This construct contains no Sp1 sites or a TAR element.
# The ability of Gal4-Tat to activate this promoter is dependent upon the presence of exogenously added TBP. […] Xhou Q, et al. (1995), EMBO J, 14:321-328; Huang L M, et al. (1994), EMBO, 13:2886-2896. We next examined if the peptides were capable of downregulating the TBP/Tat-activated transcription by electroporating CEM T-cells with either wild type or peptide 41/44.
substance,measurement,setting,value
V-C-F-T-T-A-A-L-A-I-S-Y-G-R-K (SEQ ID NO:7) (VCFTTAALSISYGRK) [Tat peptide analog 41/44],Tat transactivation (CAT) in presence of peptide,[1],1.1%
same,basal transcription of the HTLV-1 promoter,[2]; 1 μg peptide,15.6%
same,basal transcription of the HTLV-1 promoter,[2]; 5 μg peptide,16.4%
same,decrease of Tax1 transactivated transcription,"[2]; Tax1 1 μg, 49.2 to 22.8 percent",approximately two-fold
same,Tax1 transactivated transcription,"[2]; Tax1 1 μg, decreased from 49.2",22.8%
same,transcription from the CMV promoter,[3]; 1 μg peptide,9.04%
same,transcription from the CMV promoter,[3]; 5 μg peptide,6.7%
same,inhibition of transcription from other polymerase II promoters,[4],minimal inhibition
same,inhibition of virus replication in U1 cells,[5]; comparable experiment with 36-72 peptides,approximately 75%
same,inhibition of Tat-induced virus production in U1 cells,"[5]; peptide 5 μg, in comparison to wild type peptide 5 μg, p24, 48 hours",approximately 85%
same,decrease of virus production in co-cultivation,[6],85%
same,level of HIV-1 viral mRNA,[7],a decrease in the level of HIV-1 viral mRNA was detected
same,expression of the cellular GAPDH gene,[8],no change
same,inhibition of TBP/Tat-activated transcription,[9],inhibited TBP/Tat-activated transcription
"V-C-F-T-T-K-A-L-G-I-S-Y-G-R-K (SEQ ID NO:2) (VCFTTKALGISYGRK) [Tat 36-50, wild type Tat core peptide, amino acids 36-50, reference compound]",drop in transcription activity,[1]; peptide included in the transfection with Tat protein,no apparent drop in transcription activity
same,decrease of virus production in co-cultivation,[6],did not inhibit HIV virus replication
V-C-F-T-T-A-A-L-G-I-A-Y-G-R-K (SEQ ID NO:8) (VCFTTAALGIAYGRK) [peptide 41/46],Tat transactivation (CAT) in presence of peptide,[1],5.5%
V-C-F-T-T-A-A-L-G-I-S-A-G-R-K (SEQ ID NO:9) (VCFTTAALGISAGRK) [Tat 36-50 (41/47)],Tat transactivation (CAT) in presence of peptide,[1],12%
